These are literature values, as cited in publication PMC12808597, “Spatially diffuse cAMP signalling with oppositely biased GLP-1 receptor agonists in β-cells despite differences in receptor localisation” (Molecular Metabolism, 2025).

One series deals with BRIN-BD11 clonal β-cells. To be noted: ref [5]. The text has this:
(§1) In this work we relied on agonist-specific patterns of internalisation to provide selective endosomal or plasma membrane localisation of active GLP-1R. Alternative approaches include pharmacological or genetic inhibition of receptor internalisation, for example the small molecule dynamin inhibitor dyngo4A [55] or overexpression of dominant negative dynamin K44 mutants, both of which have been used to probe the importance of GLP-1R internalisation on its signalling responses.

Another series relates to HEK293 cells. To be noted: ref [16].
Text: as §1

The next series concerns rodent systems. To be noted: no reference given.
In series [1] the test system is GLP-1R. To be noted: ref [6],[26]. The text has this:
In this context, interest has emerged in GLP-1R agonist ligands (GLP-1RAs) showing distinct trafficking profiles, which could lead to altered signalling from intracellular locations [[14], [15], [16]], as has been extensively noted for other GPCRs [[17], [18], [19]].

The subject of series [2] is GLP-1R. To be noted: ref [12]. The source says: GPCR signalling localisation is now a major area of research interest. Inherent to this phenomenon is the assumption that signalling responses are subject to tight spatial control, for example in the form of sharp cAMP concentration gradients close to the site of generation. Indeed, this has been reported when comparing GLP-1-induced cAMP responses at different plasma membrane nanodomains in HEK293 cells with overexpressed GLP-1R [12]. This contrasts somewhat with the current work in which cAMP was rapidly detected at intracellular locations distant from the activated GLP-1R in β-cell ...

No end group written: not given here.

For `O=C(N/N=C/c1ccc(O)c(O)c1)c1cc2ccccc2cc1O` [dynasore], the “Effect on exendin-4-induced cAMP production” value with BRIN-BD11 clonal β-cells was “reduced exendin-4-induced cAMP production”.
Consider `O=C(N/N=C/c1cc(O)c(O)cc1O)c1cc2ccccc2cc1O` [dyngo4a], for which the “Effect on GLP-1RA signalling responses” value in the series with HEK293 cells is given as “broad inhibition of GLP-1RA signalling responses”.
For `Cc1cc(-n2nc3c(c2-n2ccn(-c4ccc5c(cnn5C)c4F)c2=O)[C@H](C)N(C(=O)c2cc4cc([C@H]5CCOC(C)(C)C5)ccc4n2[C@@]2(c4noc(=O)[nH]4)C[C@@H]2C)CC3)cc(C)c1F` [orforglipron], the “Activity in rodent systems” value in the series on rodent systems was “inactive”.
As for “AMG133: GLP-1RA/GIPR antagonistic antibody”, in the series on GLP-1R [1], the “GLP-1R-mediated delivery to early endosomes” value is reported as “enhanced GLP-1R-mediated delivery to early endosomes”.
Consider “GLP-1: GLP-1, as used in Anton et al. [12] (HAEGTFTSDVSSYLEGQAAKEFIAWLVKGR; ends and bridges not checked; UniProt P01275 98-127, looked up)”, for which the “cAMP at GLP-1R nanodomain” value in the series with GLP-1R [2] (GLP-1 1 pM) is “cAMP increases within 60 nm of the GLP-1R in HEK293 cells without changes to whole cell or overall plasma membrane cAMP”. Also, the “cAMP gradient at GLP-1R nanodomain” value in the series with GLP-1R [2] (GLP-1 1 nM and 100 nM) is on record as “no such gradient was seen”.
